{"source": "paper PMC12461628", "about": "“Tolerogenic antigen-specific vaccine induces VISTA-enriched regulatory T cells and protects against arthritis in DRB1∗04:01 mice” (Molecular Therapy, 2025)", "assay": "IL-17A ELISpot, lymph node cells after DTH", "format": "cell-based, mouse", "details": "ConA 1 μg/mL, 48 h, 37°C", "experimental": "For T cell recall assays, 1 × 10^6 lymph node cells per/well were plated in anti-IL17A (TC11-18H10.1, 5 μL, Mabtech)-coated plates (Merck Millipore, #MSIPS4W10), stimulated with denatured bCOL2 (30 μg/mL), and incubated for 48 h at 37°C. Positive controls consisted of lymph node cells stimulated with Concanavalin A (ConA; 1 μg/mL, Sigma), while negative controls comprised unstimulated cells in complete medium only. Bound IL-17A was detected with anti-IL17A (TC11-8H4, 1 μg/mL, Mabtech) followed by streptavidin-conjugated alkaline phosphatase. The spots were developed using the substrate BCIP/Nitroblue Tetrazolium (Sigma). Scanned wells (ImmunoScan) were analyzed with ImmunoSpot software (Cellular Technology)."}
{"substance": "Concanavalin A [ConA]", "values": [{"measurement": "IL-17A ELISpot signal, positive control", "value": "exceeds 600 SFC/10^6 cells"}]}
